Activity calls are given as the source filed them. The rule behind the calls is not given here.
Key:
[1] = Stability of compound in gamma-glutamyl transpeptidase at 10 uM incubated for 30 mins by fluorescence assay; type: physicochemical; conditions: 0.5 h
[2] = Toxicity in BALB/c mouse xenografted with mouse 4T1 cells assessed as tissue destruction with large spaces in lung at 5 mg/kg,IT(Intratumoral) for 14 days followed by photoirradiation with 500 to 700nm light (0.5 W) for 6 hrs by Hematoxylin and Eosin staining based microscopy; type: organism-based; conditions: in vivo, other, 342 h, time 14.25 day
[3] = Toxicity in BALB/c mouse xenografted with mouse 4T1 cells assessed as tissue destruction with large spaces in kidney at 5 mg/kg,IT(Intratumoral) for 14 days followed by photoirradiation with 500 to 700nm light (0.5 W) for 6 hrs by Hematoxylin and Eosin staining based microscopy; type: organism-based; conditions: in vivo, other, 342 h, time 14.25 day
[4] = Toxicity in BALB/c mouse xenografted with mouse 4T1 cells assessed as histopathological lesion in lung at 5 mg/kg,IT(Intratumoral) for 14 days by Hematoxylin and Eosin staining based microscopy; type: organism-based; conditions: in vivo, other, 336 h, time 14 day
[5] = tested on: 4T1; test: Antitumor activity against mouse 4T1 cells xenografted in BALB/c mouse assessed as tumor growth inhibition at 5 mg/kg,IT(Intratumoral) for 14 days followed by photoirradiation with 500 to 700nm light (0.5 W) for 6 hrs; type: functional, organism-based; conditions: time 14.25 day
[6] = Drug uptake in tumor BALB/c mouse xenografted with mouse 4T1 cells at 5 mg/kg,IT(Intratumoral) and measured after 6 hrs by fluorescence imaging analysis; type: ADME, organism-based, Neoplasm; conditions: in vivo, other
[7] = Toxicity in BALB/c mouse xenografted with mouse 4T1 cells assessed as histopathological lesion in spleen at 5 mg/kg,IT(Intratumoral) for 14 days by Hematoxylin and Eosin staining based microscopy; type: organism-based; conditions: in vivo, other, 336 h, time 14 day
[8] = Drug uptake in heart of BALB/c mouse xenografted with mouse 4T1 cells at 5 mg/kg,IT(Intratumoral) and measured after 6 hrs by fluorescence imaging analysis; type: ADME, organism-based; conditions: in vivo, other
[9] = Drug uptake BALB/c mouse xenografted with mouse 4T1 cells assessed as maximum fluorescence intensity in tumor at 5 mg/kg,IT(Intratumoral) and measured at 6 hrs by fluorescence imaging analysis; type: ADME, organism-based, Neoplasm; conditions: in vivo, other
[10] = Toxicity in BALB/c mouse xenografted with mouse 4T1 cells assessed as body weight change at 5 mg/kg,IT(Intratumoral) for 14 days; type: organism-based; conditions: in vivo, other, 336 h, time 14 day
[11] = Toxicity in BALB/c mouse xenografted with mouse 4T1 cells assessed as histopathological lesion in liver at 5 mg/kg,IT(Intratumoral) for 14 days by Hematoxylin and Eosin staining based microscopy; type: organism-based; conditions: in vivo, other, 336 h, time 14 day
[12] = Drug metabolism in human MDA-MB-231 cells assessed as increase in SR expression at 5 uM incubated for 2 hrs by flow cytometry analysis; type: ADME, cell-based; conditions: mda-mb-231, 2 h
[13] = Toxicity in BALB/c mouse xenografted with mouse 4T1 cells assessed as tissue destruction with large spaces in heart at 5 mg/kg,IT(Intratumoral) for 14 days followed by photoirradiation with 500 to 700nm light (0.5 W) for 6 hrs by Hematoxylin and Eosin staining based microscopy; type: organism-based; conditions: in vivo, other, 342 h, time 14.25 day
[14] = Toxicity in BALB/c mouse xenografted with mouse 4T1 cells assessed as tissue destruction with large spaces in spleen at 5 mg/kg,IT(Intratumoral) for 14 days followed by photoirradiation with 500 to 700nm light (0.5 W) for 6 hrs by Hematoxylin and Eosin staining based microscopy; type: organism-based; conditions: in vivo, other, 342 h, time 14.25 day
[15] = tested on: 4T1; test: Antitumor activity against mouse 4T1 cells xenografted in BALB/c mouse assessed as tumor growth inhibition at 5 mg/kg,IT(Intratumoral) for 14 days relative to control; type: functional, organism-based; conditions: time 14.0 day
[16] = tested on: 4T1; test: Anticancer activity against mouse 4T1 cells assessed as reduction in cell viability at 0.01 to 10 uM incubated for 24 hrs by CCK-8 assay; type: functional, cell-based; conditions: dose 0.01-10 µM
[17] = tested on: 4T1; test: Anticancer activity against mouse 4T1 cells assessed as fold increase in gamma-H2A.X protein expression at 1 uM preincubated for 2 hrs followed by photoirradiation with 500 to 700nm and 12 J/cm^2 LED light and measured after 24 hrs by Western blot analysis relative to control; type: functional; conditions: time 26 hrs
[18] = Drug metabolism in carboxylesterase (unknown origin) assessed as formation of active photosensitizer 6-amino-5-iodo-1H-phenalen-1-one by measuring increase in fluorescence at 610nM at 10 uM under by fluorescence assay; type: ADME; conditions: human
[19] = tested on: 4T1; test: Anticancer activity against mouse 4T1 cells assessed as fold increase in cleaved caspase-3 protein expression at 1 uM preincubated for 2 hrs followed by photoirradiation with 500 to 700nm and 12 J/cm^2 LED light and measured after 24 hrs by Western blot analysis relative to control; type: functional; conditions: time 26 hrs
[20] = Drug uptake BALB/c mouse xenografted with mouse 4T1 cells assessed as increase in fluorescence signal in tumor at 5 mg/kg,IT(Intratumoral) and measured for 1 to 6 hrs by fluorescence imaging analysis; type: ADME, organism-based, Neoplasm; conditions: in vivo, other, time 1-6 hrs
[21] = Drug uptake in spleen of BALB/c mouse xenografted with mouse 4T1 cells at 5 mg/kg,IT(Intratumoral) and measured after 6 hrs by fluorescence imaging analysis; type: ADME, organism-based; conditions: in vivo, other
[22] = Induction of singlet oxygen production in ethanol assessed as singlet oxygen quantum yield at 410nm under photoirradiation with 550nm and 10 mW/cm^2 LED light for 10 to 80 secs by DPBF based microplate reader analysis; type: functional; conditions: time 10-80 sec
[23] = tested on: MDA-MB-231; test: Anticancer activity against human MDA-MB-231 cells assessed as reduction in cell viability preincubated for 2 hrs followed by photoirradiation with 500 to 700nm and 12 J/cm^2 LED light for 24 hrs by CCK-8 assay; type: functional, cell-based; conditions: MDA-MB-231, light or radiation study
[24] = tested on: MDA-MB-231; test: Anticancer activity against human MDA-MB-231 cells assessed as number of dead cells at 2.5 uM preincubated for 12 hrs followed by photoirradiation with 500 to 700nm and 12 J/cm^2 LED light for 10 mins by calcein-AM and propidium iodide staining based flow cytometry; type: functional, cell-based; conditions: time 12.2 hrs
[25] = Toxicity in BALB/c mouse xenografted with mouse 4T1 cells assessed as body weight change at 5 mg/kg,IT(Intratumoral) for 14 days followed by photoirradiation with 500 to 700nm light (0.5 W) for 6 hrs; type: organism-based; conditions: in vivo, other, 342 h, time 14.25 day
[26] = Drug metabolism in human MDA-MB-231 cells assessed as increase in carboxylesterase mediated SR release at 5 uM incubated for 2 hrs by confocal laser scanning microscopy; type: ADME, cell-based; conditions: mda-mb-231, 2 h
[27] = Toxicity in BALB/c mouse xenografted with mouse 4T1 cells assessed as histopathological lesion in tumor at 5 mg/kg,IT(Intratumoral) for 14 days by Hematoxylin and Eosin staining based microscopy; type: organism-based; conditions: in vivo, other, 336 h, time 14 day
[28] = Toxicity in BALB/c mouse xenografted with mouse 4T1 cells assessed as tissue destruction with large spaces in liver at 5 mg/kg,IT(Intratumoral) for 14 days followed by photoirradiation with 500 to 700nm light (0.5 W) for 6 hrs by Hematoxylin and Eosin staining based microscopy; type: organism-based; conditions: in vivo, other, 342 h, time 14.25 day
[29] = Drug metabolism in carboxylesterase (unknown origin) assessed as formation of active photosensitizer 6-amino-5-iodo-1H-phenalen-1-one at 10 uM under by LC-MS/MS analysis assay; type: ADME; conditions: human
[30] = Drug uptake in tumor of BALB/c mouse xenografted with mouse 4T1 cells at 5 mg/kg,IT(Intratumoral) and measured for 6 to 72 hrs by fluorescence imaging analysis; type: ADME, organism-based, Neoplasm; conditions: in vivo, other, time 6-72 hrs

SMILES: O=C(CCl)Nc1c(I)cc2c3c(cccc13)C(=O)C=C2
- Stability [1]: Stable
- Activity [2]: Toxic
- Activity [3]: Toxic
- Activity [4]: Non-Toxic
- Activity [5]: Active
- Drug uptake [6]: Active
- Activity [7]: Non-Toxic
- Drug uptake [8]: Not Active
- Drug uptake [9]: Active
- Activity [10]: Toxic
- Activity [11]: Non-Toxic
- Drug metabolism [12]: Metabolite_Detected
- Activity [13]: Toxic
- Activity [14]: Toxic
- Activity [15]: Active
- Activity [16]: Active
- fold change (FC) [17]: 2.12
- Drug metabolism [18]: Metabolite_Detected
- fold change (FC) [19]: 3.45
- Drug uptake [20]: Active
- Drug uptake [21]: Not Active
- Activity [22]: 0.09
- IC50 [23]: 1590 nM
- Activity [24]: Active
- Activity [25]: Toxic
- Drug metabolism [26]: Metabolite_Detected
- Activity [27]: Non-Toxic
- Activity [28]: Toxic
- Drug metabolism [29]: Metabolite_Detected
- Drug uptake [30]: Not Active

Source: ChEMBL document CHEMBL5321227, “Lysosome-targeting phenalenones as efficient type I/II photosensitizers for anticancer photodynamic therapy” (Eur J Med Chem, 2023)
